The test system of assay [1] is DC3F/ADX. As to the kind of experiment: Binding affinity to P-gp isolated from chinese hamster DC3F/ADX cells assessed as increase in ADP formation by drug-P-gp interaction assay relative to basal. The format is cell-free. Particulars: Cricetulus griseus.
Assay [2] deals with Candida albicans. As to the kind of experiment: Antifungal activity against Candida albicans CAI4 at 6 ug/disk after 24 hrs by disk diffusion assay. The class given is functional. The settings on record: CAI4, 24 h, read-out: DIZ. (Agar diffusion results depend on both activity and mobility in agar.)
Assay [3] deals with Candida albicans. As to the kind of experiment: Antifungal activity against Candida albicans CAI4 at 0.2 mg/ml after 48 hrs by spot assay. The format is functional, organism-based.
The test system of assay [4] is Candida albicans. As to the kind of experiment: Antifungal activity against Candida albicans CAI4 at 0.5 mg/ml after 48 hrs by spot assay. The class given is functional, organism-based.
For assay [5], the system named is Candida albicans. Nature of the assay: Antifungal activity against Candida albicans CAI4 after 48 hrs. The format is functional. The settings on record: CAI4, 48 h.
The test system of assay [6] is DC3F/ADX. Nature of the assay: Binding affinity to P-gp isolated from chinese hamster DC3F/ADX cells assessed as increase in ADP formation at 0.05 uM by drug-P-gp interaction assay relative to basal. The format is cell-free. Particulars: Cricetulus griseus.
For assay [7], the system named is Candida albicans. As to the kind of experiment: Inhibition of cell-wall integrity in Candida albicans CAI4 assessed as ratio of glucose/ATP-driven Rhodamine-6G efflux to Rhodamine-6G efflux in absence of glucose/ATP at 230 ug/ml relative to control. The format is functional, organism-based.
Assay [8] concerns Candida albicans. As to the kind of experiment: Antifungal activity against Candida albicans CAI4 at 160 ug/ml in presence of cell-wall toxin CR. The format is functional, organism-based.
The test system of assay [9] is Candida albicans. As to the kind of experiment: Inhibition of cell-wall integrity in Candida albicans CAI4 assessed as increase in Rhodamine-6G efflux at 230 ug/ml in absence of glucose. The class given is functional, organism-based.
The test system of assay [10] is Candida albicans. As to the kind of experiment: Antifungal activity against Candida albicans CAI4 at 160 ug/ml in presence of cell-wall toxin CFW. The format is functional, organism-based.
Assay [11] deals with Candida albicans. As to the kind of experiment: Antifungal activity against Candida albicans CAI4 at 200 ug/disk after 24 hrs by disk diffusion assay. The class given is functional. The settings on record: CAI4, 24 h, read-out: DIZ.
The subject of assay [12] is Candida albicans. Nature of the assay: Inhibition of cell-wall integrity in Candida albicans CAI4 assessed as increase in Rhodamine-6G influx at 230 ug/ml. The class given is functional, organism-based.
Assay [13] has as its system Candida albicans. Nature of the assay: Antifungal activity against Candida albicans CAI4 at 0.313 mg/ml after 48 hrs by spot assay. The format is functional, organism-based.

Molecules are shown by their SMILES. ≈ marks a conversion by molar mass, not a printed value. Calls of active or inactive are those of the source. No cut-off for these calls is given here.

On to `Cc1cccc2c1c(=O)c1ccccc1n2CC(O)CN1CCC(N2CCCCC2)CC1` (configuration not stated), for which the outcome in the assay on DC3F/ADX [1] was Active.

Turning to `Clc1ccc(COC(Cn2ccnc2)c2ccc(Cl)cc2Cl)c(Cl)c1` (configuration not stated) [MICONAZOLE], the zone of inhibition at 6 µg/disc with Candida albicans [2] was found to be 12 mm.

A word on the MIC80: it is an inhibitory concentration at the 80% level, which refers to growth in some studies and to a panel of isolates in others. A low value points to greater potency. As to `O=C(O)c1cccc2c(=O)c3ccccc3n(CC(O)CN3CCCCC3)c12` (configuration not stated), the outcome with Candida albicans [3] and with Candida albicans [4] was inactive. For the same compound, the result in the assay with DC3F/ADX [1] was Active. Further, the MIC80 with Candida albicans [5] turned out to be 405 µg/mL (≈ 1060 µM).

On to `O=C(O)c1cccc2c(=O)c3ccccc3[nH]c12`, for which the outcome in the assay with DC3F/ADX [1] was Active.

With `Cc1cccc2c1c(=O)c1ccccc1n2CC(O)CN1CCCCC1` (configuration not stated), in the assay on DC3F/ADX [1], the result was Active.

As for `O=C(O)c1cccc2c(=O)c3ccccc3n(CC3CO3)c12` (configuration not stated), in the assay on DC3F/ADX [1], the result was Active.

`O=C(O)c1cccc2c(=O)c3ccccc3n(CC(O)CN3CCC(N4CCCCC4)CC3)c12` (configuration not stated): the Activity in the assay on DC3F/ADX [6] amounted to 33%. The result with Candida albicans [7] was inactive. Moreover, the result with Candida albicans [8], with Candida albicans [9], in the assay on DC3F/ADX [1], in the assay with Candida albicans [10], in the assay with Candida albicans [12] and with Candida albicans [13] was Active. Besides, the zone of inhibition at 200 µg/disc in the assay on Candida albicans [11] amounted to 10 mm. The same compound came in with an MIC80 in the assay with Candida albicans [5] of 234 µg/mL (≈ 505 µM).

Regarding `OC(Cn1cncn1)(Cn1cncn1)c1ccc(F)cc1F` [FLUCONAZOLE], in the assay on Candida albicans [2], the zone of inhibition at 6 µg/disc came to 15 mm.

Regarding `Cc1cccc2c1c(=O)c1ccccc1n2CC(O)CN1CCCC1` (configuration not stated), in the assay on DC3F/ADX [1], the outcome was Active.

In the case of `O=C(O)c1cccc2c(=O)c3ccccc3n(CC(O)CN3CCCC3)c12` (configuration not stated), the result with DC3F/ADX [1] was Active.

Turning to `O=C(O)c1cccc2c(=O)c3ccccc3n(CC(O)CN3CCOCC3)c12` (configuration not stated), the result with Candida albicans [3] and with Candida albicans [4] was inactive. In addition, the outcome with DC3F/ADX [1] was Active. Also, the MIC80 in the assay on Candida albicans [5] stood at 132 µg/mL (≈ 345 µM).

`Cc1cccc2c1c(=O)c1ccccc1n2CC(O)CN1CCOCC1` (configuration not stated): the result with DC3F/ADX [1] was Active.

These data come from ChEMBL document CHEMBL1158413, “Design, synthesis and evaluations of acridone derivatives using Candida albicans--search for MDR modulators led to the identification of an anti-candidiasis agent” (2009).
